# Assay results taken from patent publication US20150218534A1, “MODIFIED DNA POLYMERASE” (TOYOBO CO., LTD., priority 2012, published 2015).
# Experiments:
# 482 bp of human β-globin = assay: PCR amplification of 482 bp of human β-globin with dUTP in place of dTTP; format: biochemical; design: key to Results of PCR in the presence of dUTP 481 bp: A: Amplified; B: Amplified (faint band); C: Not amplified; conditions: for Results of PCR in the presence of dUTP 481 bp: dTTP replaced by dUTP, 35 cycles; for PCR amplification of 482 bp with dUTP: 100% dUTP instead of dTTP (FIGS. 5 to 8)
# Method: 482 bp of human β-globin was amplified to compare the amplification difference between the case of using dTTP and the case of using dUTP in PCR, and the sensitivity to dUTP was examined. For amplification, each enzyme was used after being mixed with 1 μg of a KOD antibody per U of the enzyme. For PCR, components included in KOD-Plus-Ver. 2 (produced by Toyobo Co. Ltd.) were used. General dNTPs (dATP, dTTP, dCTP, dGTP) in an amount of 0.2 mM were added to 50 μl of individual reaction solutions, and dNTPs (dATP, dUTP, dCTP, dGTP) in an amount of 0.2 mM in which dTTP was replaced by dUTP were added to 50 μl of individual reaction solutions. The reaction solutions contained 1× PCR buffer, 1.5 mM MgSO4, primers represented by SEQ ID NOs: 27 and 28 in an amount of 15 pmol for amplifying […], 10 ng of human genomic DNA (produced by Roche), and 1 U of each respective enzyme mixed with the antibody. PCR was performed using a GeneAmp PCR system 9700 (produced by Applied Biosystems) on the following schedule: preliminary reaction at 94° C. for 2 minutes, followed by 35 cycles, each cycle consisting of 98° C. for 10 seconds and 68° C. for 1 minute. After the completion of each individual reaction, each of the resulting reaction solutions was analyzed using to a DNA-1000 kit for MultiNA (produced by Shimadzu Corporation) to confirm amplified DNA fragments. FIGS. 5 and 6 show the results.
# [1] = tested on: 1.3 kbp, 2.8 kbp, and 3.6 kbp of human β-globin; assay: Amplification of long-chain DNA in PCR using dUTP; format: biochemical; design: key to Results of PCR in the presence of dUTP 1.3 kbp / Results of PCR in the presence of dUTP 2.8 kbp / Results of PCR in the presence of dUTP 3.6 kbp: A: Amplified; B: Amplified (faint band); C: Not amplified; conditions: dTTP replaced by dUTP, 35 cycles
# Outline: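 Enzymes (1 U, premixed with KOD antibody) amplified 1.3, 2.8 and 3.6 kbp β-globin from 10 ng human genomic DNA with 2 mM dNTPs having dUTP in place of dTTP, 1.5 mM MgSO4, 35 cycles (98° C. 10 s, 65° C. 30 s, 68° C. ~1 min/kbp). Taq control: 2.5 U, 94° C. denaturation. Yield judged by ethidium-stained agarose gel.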
Substance,Results of PCR in the presence of dUTP 481 bp (482 bp of human β-globin),Results of PCR in the presence of dUTP 1.3 kbp [1],Results of PCR in the presence of dUTP 2.8 kbp [1],Results of PCR in the presence of dUTP 3.6 kbp [1],PCR amplification of 482 bp with dUTP (482 bp of human β-globin),PCR amplification of 482 bp with dUTP (482 bp of human β-globin; listed as V93K/Y7A)
KOD I142R/P36R: KOD I142R (exo(−)) mutant with P36R,A,A,A,A,,
KOD I142R/P36H: KOD I142R (exo(−)) mutant with P36H,A,A,A,A,,
KOD D141A/E143A/Y7A/P36R: KOD D141A/E143A (exo(−)) mutant with Y7A and P36R,A,A,A,A,,
KOD H147E/Y7A/V93K: KOD H147E (exo(+)) mutant with Y7A and V93K,A,A,A,B,,
KOD I142R/Y7A/P36H: KOD I142R (exo(−)) mutant with Y7A and P36H,A,A,A,C,,
KOD H147E/V93K: KOD H147E (exo(+)) mutant with V93K,A,B,B,B,,
KOD I142R/Y7A/P36R: KOD I142R (exo(−)) mutant with Y7A and P36R,A,A,A,B,,
KOD N210D/P36R: KOD N210D (exo(−)) mutant with P36R,A,A,A,A,,
KOD H147E/P36R/V93K: KOD H147E (exo(+)) mutant with P36R and V93K,C,C,C,C,,
KOD D141A/E143A/V93K: KOD D141A/E143A (exo(−)) mutant with V93K,A,A,B,B,,
KOD N210D/Y7A/P115Δ: KOD N210D (exo(−)) mutant with Y7A and lacking P115,C,C,C,C,,
KOD I142R/Y7A/V93K: KOD I142R (exo(−)) mutant with Y7A and V93K,A,A,A,A,,
KOD Y7A/V93K: modified KOD DNA polymerase with Y7A and V93K,A,A,A,B,allowed for PCR amplification,"greatly improve the amplification amount, compared to V93K"
KOD D141A/E143A/Y7A/V93K: KOD D141A/E143A (exo(−)) mutant with Y7A and V93K,A,A,A,A,,
KOD N210D/Y7A/P36R: KOD N210D (exo(−)) mutant with Y7A and P36R,A,A,A,A,,
KOD H147E/V93R: KOD H147E (exo(+)) mutant with V93R,A,B,B,B,,

Substance,Results of PCR in the presence of dUTP 481 bp (482 bp of human β-globin),Results of PCR in the presence of dUTP 1.3 kbp [1],Results of PCR in the presence of dUTP 2.8 kbp [1],Results of PCR in the presence of dUTP 3.6 kbp [1],PCR amplification of 482 bp with dUTP (482 bp of human β-globin),PCR amplification of 482 bp with dUTP (482 bp of human β-globin; listed as V93K/Y7A)
KOD H147E/P36H/V93K: KOD H147E (exo(+)) mutant with P36H and V93K,A,A,A,C,,
KOD Y7A/P115Δ: modified KOD DNA polymerase with Y7A and lacking P115,C,C,C,C,,
KOD I142R/Y7A: KOD I142R (exo(−)) mutant with Y7A,C,C,C,C,,
KOD N210D/V93Q: KOD N210D (exo(−)) mutant with V93Q,A,C,C,C,,
KOD H147E/P36H: KOD H147E (exo(+)) mutant with P36H,A,B,B,C,,
KOD N210D/P115Δ: KOD N210D (exo(−)) mutant lacking P115,C,C,C,C,,
KOD H147E/P115Δ: KOD H147E (exo(+)) mutant lacking P115,C,C,C,C,,
KOD D141A/E143A/P36H: KOD D141A/E143A (exo(−)) mutant with P36H,A,A,A,A,,
KOD Y7A/P36R: modified KOD DNA polymerase with Y7A and P36R,A,A,A,B,allowed for PCR amplification,
KOD N210D/V93R: KOD N210D (exo(−)) mutant with V93R,A,A,B,B,,
KOD N210D/P36H: KOD N210D (exo(−)) mutant with P36H,A,A,A,A,,
KOD H147E/Y7A/P36R: KOD H147E (exo(+)) mutant with Y7A and P36R,A,A,A,B,,
KOD N210D/Y7A/P36H: KOD N210D (exo(−)) mutant with Y7A and P36H,A,A,A,A,,
KOD I142R/V93K: KOD I142R (exo(−)) mutant with V93K,A,A,B,B,,
KOD D141A/E143A/P36R: KOD D141A/E143A (exo(−)) mutant with P36R,A,A,A,A,,
